This experiment is described as follows: Squalene degradation test with free-radical initiator V65 (protective factor QS, synergy with tocopherol). Further details: key to QS: QS = degradation rate without stabilizer / degradation rate with it. Particulars: squalene content by GC; for QS: 250 ppm test substance in 2% azobis(2,4-dimethylvaleronitrile) in squalene, stored open 30 days at 40° C., QSx=degradation rate0/degradation ratex; for QS + 250 ppm Tocopherol: 250 ppm test substance plus 250 ppm tocopherol in 2% azobis(2,4-dimethylvaleronitrile) in squalene, 30 days at 40° C. The procedure:
General procedure for determining the synergistic effect of peroxide decomposers used according to the invention with tocopherol
3 ml of a 2% strength solution of azobis(2,4.dimethylvaleronitrile). (V65, Wako Chemical Co.) in squalene are poured together with 250 ppm of test substance (based on the squalene solution) into Fiolax test tubes ([…]) and thoroughly mixed using a laboratory shaker. The samples are then stored open in a circulatory drying cabinet for 30 days at 40° C. At intervals of 7 days, the squalene content of the samples is ascertained using gas chromatography. The reference used is a sample without the […]. The data points are documented in an XY graph and the effectiveness of the test substances is determined by reference to the slope of the decomposition curves in comparison to the reference sample.
A measure of the protective effect of a test compound is the factor QS, which is a measure of how much a stabilizer reduces the degradation rate. QSx=degradation rate0/degradation ratex

For the molecule `Sc1nnc(-c2ccccc2)[nH]1` [compound 8], the QS is on record as 1.34 and the “QS + 250 ppm Tocopherol” value is on record as 1.8.
Consider `CCCc1cc(O)nc(S)n1` [compound 5], for which the QS is 2.58 and the “QS + 250 ppm Tocopherol” value is recorded as 4.44.
Consider `Oc1cccnc1S` [compound 9], for which the QS is reported as 1.66 and the “QS + 250 ppm Tocopherol” value stood at 2.25.
The matching figures for `S=c1cc[nH]c(=S)[nH]1` [compound 4]: 1.13 and 2.08.
With Tocopherol [reference compound], the QS came out at 1.3.
On to `S=C1CSc2ccccc2N1` [compound 6], for which the QS is reported as 3.03 and the “QS + 250 ppm Tocopherol” value was 3.75.
With `On1ccccc1=S` [compound 7], the QS worked out at 1.47 and the “QS + 250 ppm Tocopherol” value is on record as 2.58.
For the molecule `Sc1nccs1` [compound 3], the QS is 2.75 and the “QS + 250 ppm Tocopherol” value came out at 4.25.
Turning to `O=C(O)c1cccnc1S` [compound 10], the QS is given as 1.18 and the “QS + 250 ppm Tocopherol” value is reported as 1.65.

The values above are taken from patent US20080193397A1, “Use of Peroxide Decomposers Method For the Treatment of a Material Other Than the Human Body” (BASF Aktiengesellscaft, priority 2005, published 2008).
